Assay results taken from US20070149485A1, “SELECTED DOSAGE FOR THE TREATMENT OF CARDIOVASCULAR AND RELATED PATHOLOGIES” (Medicure International, Inc., priority 2005, published 2007).

Tested on: high-risk patients undergoing CABG surgery with cardiopulmonary bypass
Test: Intravenous P5P in high-risk patients undergoing CABG surgery (Example 2, protocol of Example 1 repeated)
Format: in vivo, human
Conditions: CK-MB cut-off 100 ng/ml
Procedure: The randomized, double-blind placebo-controlled, dose-ranging, parallel-arm multi-center study on high-risk patients undergoing CABG surgery with cardiopulmonary bypass of Experiment 1 is repeated using a protocol as described in Experiment 1, with the difference that the placebo/drug is administered intravenously, in an intravenous dose pharmacokinetically approximating the dosage given enterally in Experiment 1.
Approximately 3000 high-risk pre-CABG patients are screened and randomized to […], prior to their bypass surgery, as follows. Patients are either placed in a control group (placebo), treated intravenously with 5.00 mg/day of P5P, or treated intravenously with 23.33 mg/day of P5P.
Patients are identified as “high risk” if they had two or more of the following risk factors:
• Age greater than 65 years; • Current smoker; • History of diabetes mellitus requiring treatment other than diet; • Evidence of left ventricular dysfunction or congestive heart failure; • History of a previous non-disabling stroke, transient ischemic attack, or carotid endarterectomy; • Urgent CABG intervention defined as the need to stay in the hospital (although the patient may be operated on within a normal scheduling routine); • History of myocardial infarction that occurred more than 48 hours but less than 6 weeks prior to CABG surgery; • Prior peripheral artery surgery or angioplasty; • Moderate renal dysfunction defined as creatinine>133 μmol/L (1.5 mg/dl), but <250 μmol/L (2.8 mg/dl); and • Presence of at least one asymptomatic carotid artery stenosis (>50%) either in one or two carotid arteries.
The first dose of study medication is administered at 3-10 hours prior to CABG surgery. In the event of surgery delay or rescheduling, a second pre-operative dose of P5P is administered so that all patients receive study medication 3-10 hours before surgery. Treatment continues for 30 days after surgery (post operative day (POD) 30). Patients receive follow-up evaluations up to and including postoperative day on POD 30 and on POD 90.
Patients are measured for combined incidence of cardiovascular death and nonfatal myocardial infarction (MI) up to and including post-operative day 30 (POD 30). Patients are also measured for nonfatal myocardial infarction alone.
All deaths without an identifiable non-cardiovascular cause are considered of cardiovascular origin.
Cerebral infarction (stroke) is defined clinically as any new sudden onset focal neurological deficit lasting at least 24 hours as assessed by a neurologist and after neuroimaging (computed tomography [CT] brain scan or magnetic resonance imaging [MRI]) excludes an intracerebral hemorrhage. […]

Cc1ncc(COP(=O)(O)O)c(C=O)c1O [P5P, 3-hydroxy-2-methyl-5-[(phosphonooxy)methyl]-4-pyridine-carboxaldehyde]
highly effective: reducing instances of myocardial infarction (intravenous 5.00 mg/day) | reducing total incidents (myocardial infarction, cerebral infarction, or death) (intravenous 5.00 mg/day, better than 23.33 mg/day) | reducing instances of myocardial infarction (intravenous 23.33 mg/day) | reducing total incidents (myocardial infarction, cerebral infarction, or death) (intravenous 23.33 mg/day)
